In this experiment the target is PARP1 (Homo sapiens, UniProt P09874). Kind of experiment: PARP1 biochemical DELFIA assay (auto-PARylation).

A word on the IC50: it is the concentration that inhibits the measured activity by half.

Some results are limits rather than exact numbers.

Chain of PARP1 (P09874 whole entry): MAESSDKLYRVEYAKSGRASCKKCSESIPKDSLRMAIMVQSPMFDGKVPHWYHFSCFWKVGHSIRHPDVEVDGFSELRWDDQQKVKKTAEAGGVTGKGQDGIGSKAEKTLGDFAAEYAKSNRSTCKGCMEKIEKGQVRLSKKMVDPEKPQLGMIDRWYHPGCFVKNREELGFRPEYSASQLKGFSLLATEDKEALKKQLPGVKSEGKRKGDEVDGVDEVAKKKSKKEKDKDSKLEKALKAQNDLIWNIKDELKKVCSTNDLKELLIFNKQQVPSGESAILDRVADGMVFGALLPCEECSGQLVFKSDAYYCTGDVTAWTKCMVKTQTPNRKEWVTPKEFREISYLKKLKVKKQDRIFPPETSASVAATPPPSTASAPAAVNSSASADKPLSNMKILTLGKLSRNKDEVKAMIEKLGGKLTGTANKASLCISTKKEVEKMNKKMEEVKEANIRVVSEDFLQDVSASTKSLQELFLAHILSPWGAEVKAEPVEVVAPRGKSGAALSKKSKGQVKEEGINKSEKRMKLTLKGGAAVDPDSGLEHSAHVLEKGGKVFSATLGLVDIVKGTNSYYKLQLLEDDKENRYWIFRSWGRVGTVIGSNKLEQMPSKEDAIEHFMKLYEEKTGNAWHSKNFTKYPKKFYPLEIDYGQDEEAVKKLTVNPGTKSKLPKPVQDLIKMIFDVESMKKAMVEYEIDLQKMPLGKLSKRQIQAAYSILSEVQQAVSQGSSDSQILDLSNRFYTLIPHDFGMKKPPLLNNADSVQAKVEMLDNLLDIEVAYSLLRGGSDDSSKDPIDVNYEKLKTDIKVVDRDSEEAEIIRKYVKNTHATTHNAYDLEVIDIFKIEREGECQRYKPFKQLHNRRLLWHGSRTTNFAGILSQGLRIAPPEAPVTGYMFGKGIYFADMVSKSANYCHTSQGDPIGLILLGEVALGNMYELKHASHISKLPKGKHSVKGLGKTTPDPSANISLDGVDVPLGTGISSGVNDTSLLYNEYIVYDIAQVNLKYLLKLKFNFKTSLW
Method: Prior to assay, wells were washed 3×5 min in coating wash buffer.
% data was fitted to a non-linear regression equation (log inhibitor vs response-variable slope 4-parameters) to obtain IC50 values.

Under “Table 1A”, `N#Cc1ccc(N2CCN(C(=O)CN3CCCC3c3cc(C(F)(F)F)c(=O)[nH]n3)CC2)cc1` (single isomer, unassigned) [Compound 71b] gave an IC50 of 10 to 100 nM.

Regarding `N#Cc1ccc2oc(N3CCN(C(=O)CN4CCCC4c4cc(C(F)(F)F)c(=O)[nH]n4)CC3)nc2c1` (single isomer, unassigned) [Compound 100b], under “Table 1A”, the IC50 fell in the range of 100 to 1000 nM.

Under “Table 1A”, `O=C(CN1CCCC1c1c[nH]c(=O)c(Cl)c1)N1CCN(c2ncc(C(F)(F)F)cn2)CC1` (single isomer, unassigned) [Compound 78a, 3-chloro-5-(1-(2-oxo-2-(4-(5-(trifluoromethyl)pyrimidin-2-yl)piperazin-1-yl)ethyl)pyrrolidin-2-yl)pyridin-2(1H)-one] gave an IC50 of 100 to 1000 nM.

For the setting “Table 1A”, `O=C(CN1CCCC1c1cc(C2CC2)c(=O)[nH]n1)N1CCN(c2ncc(C(F)(F)F)cn2)CC1` (racemic) [Compound 65rac] had an IC50 of 10 to 100 nM.

Under “Table 1A”, `O=C(CN1CCCC1c1cc(C(F)(F)F)c(=O)[nH]n1)N1CCN(c2nc3ccc(Cl)cc3o2)CC1` (single isomer, unassigned) [Compound 85b] came in with a half-inhibitory concentration (IC50) of 1000 to 10000 nM.

The compound `COC1CC(c2cc(C(F)(F)F)c(=O)[nH]n2)N(CC(=O)N2CCN(c3ncc(C(F)(F)F)cn3)CC2)C1` (single isomer, unassigned) [Compound 138cis1, 6-(4-methoxy-1-(2-oxo-2-(4-(5-(trifluoromethyl)pyrimidin-2-yl)piperazin-1-yl)ethyl)pyrrolidin-2-yl)-4-(trifluoromethyl)pyridazin-3(2H)-one] gave an IC50 (Table 1A) of 10 to 100 nM.

In turn, `O=C(CN1CCCC1c1cc(C(F)(F)F)c(=O)[nH]n1)N1CCN(c2ncc(F)cc2C(F)(F)F)CC1` (single isomer, unassigned) [Compound 120a] showed an IC50 (Table 1A) of 1000 to 10000 nM.

Under “Table 1”, `O=C(CCN1CCCC(c2cc(C(F)(F)F)c(=O)[nH]n2)C1)N1CCN(c2ccc(Cl)cn2)CC1` (single isomer, unassigned) [Compound 15a] came in with an IC50 of 100 to 1000 nM.

Consider `O=C(CCN1CCCC(c2cc(C(F)(F)F)c(=O)[nH]n2)C1)N1CCN(c2ncc(Cl)cn2)CC1` (racemic) [Compound 20rac], for which the 50% inhibitory concentration (IC50) (Table 1) is 100 to 1000 nM.

For the setting “Table 1A”, `N#Cc1cnc(N2CCN(C(=O)CN3CCCC3c3cc(C(F)(F)F)c(=O)[nH]n3)CC2)s1` (racemic) [Compound 44rac] had an IC50 of 10 to 100 nM.

The compound `N#Cc1cc(Cl)cnc1N1CCN(C(=O)CN2CCCC2c2cc(C(F)(F)F)c(=O)[nH]n2)CC1` (single isomer, unassigned) [Compound 144a] had an IC50 (Table 1A) of 10 to 100 nM.

Regarding `N#Cc1cc(C2CCCN2CC(=O)N2CCN(c3nc4cc(F)ccc4o3)CC2)n[nH]c1=O` (single isomer, unassigned) [Compound 149b], the IC50 (Table 1A) is > 10000 nM.

`O=C(CN1CCCC(c2cc(C(F)(F)F)c(=O)[nH]n2)C1)N1CCN(c2ncc(C(F)(F)F)cn2)CC1` (single isomer, unassigned) [Compound 14b] came in with an IC50 (Table 1) of 100 to 1000 nM.

`O=C(CCC1CCN(c2ncc(C(F)(F)F)cn2)CC1)N1CCCC(c2cc(C(F)(F)F)c(=O)[nH]n2)C1` (single isomer, unassigned) [Compound 4b] gave an IC50 (Table 1) of 100 to 1000 nM.

The compound `O=C(CCN1CCCC1c1cc(C(F)(F)F)c(=O)[nH]n1)N1CCN(c2ncc(C(F)(F)F)cn2)CC1` (single isomer, unassigned) [Compound 18a, 6-(1-(3-oxo-3-(4-(5-(trifluoromethyl)pyrimidin-2-yl)piperazin-1-yl)propyl)pyrrolidin-2-yl)-4-(trifluoromethyl)pyridazin-3(2H)-one] registered an IC50 (Table 1) of 10 to 100 nM.

Under “Table 1A”, `CN(c1ncc(C(F)(F)F)cn1)C1CN(C(=O)CN2CCCC2c2cc(C(F)(F)F)c(=O)[nH]n2)C1` (single isomer, unassigned) [Compound 127b] displayed an IC50 of 1000 to 10000 nM.

For the compound `O=C(CN1CCCC1c1cc(C(F)(F)F)c(=O)[nH]n1)N1CCN(c2nc3ccc(F)cn3n2)CC1` (single isomer, unassigned) [Compound 128a], where the note is “Table 1A”, the half-maximal inhibitory concentration (IC50) is ≤ 10 nM.

For `O=C(CN1CCCC1c1cc(C(F)(F)F)c(=O)[nH]n1)N1CCN(c2ncc(OC(F)F)cn2)CC1` (single isomer, unassigned) [Compound 118a], where the note is “Table 1A”, the IC50 was ≤ 10 nM.

`O=C(CCN1CCCC(c2cc(C(F)(F)F)c(=O)[nH]n2)C1)N1CCN(c2ccc(F)cn2)CC1` (single isomer, unassigned) [Compound 8b] returned an IC50 (Table 1) of 100 to 1000 nM.

In the case of `O=C(CN1CCCC1c1cc(C(F)(F)F)c(=O)[nH]n1)N1CCN(c2ccc(F)cn2)CC1` (single isomer, unassigned) [Compound 46b], the IC50 (Table 1A) was in the range of 100 to 1000 nM.

`N#Cc1ccc2nc(N3CCN(C(=O)CN4CCCC4c4cc(C(F)(F)F)c(=O)[nH]n4)CC3)oc2c1` (single isomer, unassigned) [Compound 96a] showed an IC50 (Table 1A) of 100 to 1000 nM.

Take `O=C(CN1CCCC1c1cc(C(F)(F)F)c(=O)[nH]n1)N1CCN(c2nc3ccccn3n2)CC1` (single isomer, unassigned) [Compound 117a]: the IC50 (Table 1A) is ≤ 10 nM.

For the compound `N#Cc1cc(C2CCCN2CC(=O)N2CCN(c3ncc(C(F)(F)F)cn3)CC2)n[nH]c1=O` (single isomer, unassigned) [Compound 98a, 3-oxo-6-(1-(2-oxo-2-(4-(5-(trifluoromethyl)pyrimidin-2-yl)piperazin-1-yl)ethyl)pyrrolidin-2-yl)-2,3-dihydropyridazine-4-carbonitrile], the IC50 (Table 1A) lay within 100 to 1000 nM.

`N#Cc1cnc(N2CCN(C(=O)CN3CCCC3c3c[nH]c(=O)c(C(F)(F)F)c3)CC2)nc1` (single isomer, unassigned) [Compound 76a]: the IC50 (Table 1A) was in the range of 1000 to 10000 nM.

Regarding `O=C(CN1CCCC1c1c[nH]c(=O)c(Cl)c1)N1CCN(c2ncc(C(F)(F)F)cn2)CC1` (single isomer, unassigned) [Compound 78b, 3-chloro-5-(1-(2-oxo-2-(4-(5-(trifluoromethyl)pyrimidin-2-yl)piperazin-1-yl)ethyl)pyrrolidin-2-yl)pyridin-2(1H)-one], the IC50 (Table 1A) is > 10000 nM.

In the case of `O=C(CN1CCCC1c1cc(C(F)(F)F)c(=O)[nH]n1)N1CCN(c2nc3cc(Cl)ccc3o2)CC1` (single isomer, unassigned) [Compound 99a], the IC50 (Table 1A) is ≤ 10 nM.

With `N#Cc1cc(C2CCCN2CC(=O)N2CCN(c3nc4cc(Cl)ccc4o3)CC2)n[nH]c1=O` (single isomer, unassigned) [Compound 121a], the IC50 (Table 1A) is 100 to 1000 nM.

Consider `CCc1[nH]c(=O)c(C(F)(F)F)cc1C1CCCN1CC(=O)N1CCN(c2ncc(C(F)(F)F)cn2)CC1` (single isomer, unassigned) [Compound 105b], for which the IC50 (Table 1A) lay within 1000 to 10000 nM.

`O=C(CN1CCCC1c1cc(C(F)(F)F)c(=O)[nH]n1)N1CCN(c2nc3cc(F)ccc3o2)CC1` (single isomer, unassigned) [Compound 150b] displayed an IC50 (Table 1A) of 1000 to 10000 nM.

Regarding `O=C(CN1Cc2ccccc2C1c1cc(C(F)(F)F)c(=O)[nH]n1)N1CCN(c2ncc(C(F)(F)F)cn2)CC1` (single isomer, unassigned) [Compound 104a, 6-(2-(2-oxo-2-(4-(5-(trifluoromethyl)pyrimidin-2-yl)piperazin-1-yl)ethyl)isoindolin-1-yl)-4-(trifluoromethyl)pyridazin-3(2H)-one], the IC50 (Table 1A) is 100 to 1000 nM.

For the setting “Table 1A”, `CCc1[nH]c(=O)c(C(F)(F)F)cc1C1CCCN1CC(=O)N1CCN(c2ncc(C(F)(F)F)cn2)CC1` (single isomer, unassigned) [Compound 105a] registered an IC50 of 1000 to 10000 nM.

`CCc1cc(C2CCCN(CCC(=O)N3CCN(c4ncc(C(F)(F)F)cn4)CC3)C2)n[nH]c1=O` (single isomer, unassigned) [Compound 6a, 4-ethyl-6-(1-(3-oxo-3-(4-(5-(trifluoromethyl)pyrimidin-2-yl)piperazin-1-yl)propyl)piperidin-3-yl)pyridazin-3(2H)-one] yielded an IC50 (Table 1) of 10 to 100 nM.

`O=C(CCN1CCN(c2ncc(C(F)(F)F)cn2)CC1)N1CCCC(c2cc(C(F)(F)F)c(=O)[nH]n2)C1` (single isomer, unassigned) [Compound 9a] registered an IC50 (Table 1) of 100 to 1000 nM.

In the case of `O=C(CCN1CCC(c2cc(C(F)(F)F)c(=O)[nH]n2)CC1)N1CCN(c2ncc(C(F)(F)F)cn2)CC1` [Compound 61], the IC50 (Table 1A) is 100 to 1000 nM.

`CCc1cc(C2CCCN(CCC(=O)N3CCN(c4ncc(C(F)(F)F)cn4)CC3)C2)c[nH]c1=O` (racemic) [Compound 22rac, 3-ethyl-5-(1-(3-oxo-3-(4-(5-(trifluoromethyl)pyrimidin-2-yl)piperazin-1-yl)propyl)piperidin-3-yl)pyridin-2(1H)-one]: the IC50 (Table 1) was 100 to 1000 nM.

For the setting “Table 1A”, `Cn1c(N2CCN(C(=O)CN3CCCC3c3cc(C(F)(F)F)c(=O)[nH]n3)CC2)nc2ccccc21` (single isomer, unassigned) [Compound 97b] gave an IC50 of 1000 to 10000 nM.

Consider `O=C(CN1CCOCC1c1cc(C(F)(F)F)c(=O)[nH]n1)N1CCN(c2ncc(C(F)(F)F)cn2)CC1` (single isomer, unassigned) [Compound 88b], for which the IC50 (Table 1A) was in the range of 100 to 1000 nM.

`O=C(CN1CCC(c2cc(C(F)(F)F)c(=O)[nH]n2)CC1)N1CCN(c2ncc(C(F)(F)F)cn2)CC1` [Compound 62] registered an IC50 (Table 1A) of 100 to 1000 nM.

Compound `N#Cc1cc(C2CCCN2CC(=O)N2CCN(c3nc4cc(Cl)ccc4o3)CC2)n[nH]c1=O` (single isomer, unassigned) [Compound 121b] yielded an IC50 (Table 1A) of 1000 to 10000 nM.

`O=C(CCC1CCN(c2ncc(C(F)(F)F)cn2)CC1)N1CCCC(c2cc(C(F)(F)F)c(=O)[nH]n2)C1` (single isomer, unassigned) [Compound 4a]: the IC50 (Table 1) was 100 to 1000 nM.

Compound `N#Cc1ccc2oc(N3CCN(C(=O)CN4CCCC4c4cc(C(F)(F)F)c(=O)[nH]n4)CC3)nc2c1` (single isomer, unassigned) [Compound 100a] displayed an IC50 (Table 1A) of 10 to 100 nM.

For `O=C(CCN1CCCC(c2cc(C(F)(F)F)c(=O)[nH]n2)C1)N1CCN(c2ncc(F)cn2)CC1` (racemic) [Compound 17rac], the IC50 (Table 1) was in the range of 100 to 1000 nM.

As for `O=C(CN1CCN(c2ncc(C(F)(F)F)cn2)CC1)N1CCCC1c1cc(C(F)(F)F)c(=O)[nH]n1` (single isomer, unassigned) [Compound 32b], where the note is “Table 1”, the IC50 is > 10000 nM.

The compound `O=C(CCN1CCC(c2n[nH]c(=O)c3ccccc23)CC1)N1CCN(c2ncc(C(F)(F)F)cn2)CC1` [Compound 49] came in with an IC50 (Table 1A) of 10 to 100 nM.

For `O=C(CN1CCCC1c1cc(C(F)(F)F)c(=O)[nH]n1)N1CCN(c2ncc(OC(F)(F)F)cn2)CC1` (single isomer, unassigned) [Compound 72b], where the note is “Table 1A”, the IC50 is ≤ 10 nM.

These data come from patent US20260193238A1, “PHARMACEUTICAL COMPOUNDS AS PARP7 AND/OR PARP1 INHIBITORS” (Duke Street Bio Limited, priority 2022, published 2026).
